≈ marks a conversion by molar mass, not a printed value.
Columns and labels:
[1] = Microsomal stability assay, mouse liver microsomes; format: in vitro ADME; details: pH 7.4; mouse liver microsomes 0.5 mg/mL, 1 mM NADPH, 1 μM compound; read-out: Microsomal Stability t1/2 Mouse
Description: (§1) The in vitro microsomal stability assay was conducted in triplicate in mouse and human liver microsomal systems. In a typical incubation, a compound (typically 1 μM final concentration) was spiked into the reaction mixture containing 0.5 mg/mL of liver microsomal protein and 1 mM of NADPH in 0.1 M potassium phosphate buffer (pH 7.4) at 37° C. At various time points, 1 volume of reaction aliquot was taken and quenched with 3 volumes of acetonitrile with an appropriate internal standard. The samples were then vortexed and centrifuged at 14,000 rpm for 5 min. The supernatants were collected and analyzed by LC-MS/MS to determine the in vitro metabolic half-life (t1/2) and intrinsic clearance (CLint). Verapamil was used as a positive control.
(§2) Quantification and analysis of compounds in biological samples were carried out on an AB Sciex QTrap 5500 mass spectrometer coupled with an Agilent 1260 Infinity HPLC. The chromatographic separation of compounds was achieved using a Phenomenex Kinetex C18 column (50×2.1 mm, 2.6 μm), and MS/MS analysis was conducted using an ESI ion source with MRM detection. The MS/MS detection parameters including declustering potential (DP), entrance potential (EP), collision energy (CE), and collision cell exit potential (CXP) were optimized for each compound.

[2] = Plasma stability assay, human plasma; format: in vitro ADME; details: 37° C., 24 h
Description: (§3) The plasma stability assay was performed in triplicate by incubating a compound in normal mouse and human plasma at 37° C. At 0, 1, 3, 6, and 24 h, aliquots of the plasma mixture were taken and quenched with 3 volumes of acetonitrile containing an appropriate internal standard. The samples were then vortexed and centrifuged at 14,000 rpm for 5 min. The supernatants were collected and analyzed by LC-MS/MS to determine the remaining percentage at various time points.
as §2

[3] = Caco-2 permeability assay; format: in vitro ADME; details: human, pH 7.4
Description: Cell Culture. The human colon adenocarcinoma cell line Caco-2 was purchased from ATCC (American Type Culture Collection, Manassas, Va.), and was cultured in a humidified atmosphere of 5% CO2 at 37° C. Caco-2 cells were cultured in DMEM with 10% FBS, 1% NEAA, 1% GlutaMax and 1% penicillin and streptomycin solution. The culture medium was changed every other day during cell growth and differentiation. On achieving 80-90% confluence, the cells were rinsed with pre-warm DPBS (pH 7.4) and split using trypsin. The cells were then seeded on membranes of Millipore Millicell-24 cell culture device. The transepithelial electrical resistance (TEER) were assessed to reflect membrane integrity using a Millicells® ERS-2 (Millipore, USA). The Caco-2 cell monolayers were used for transport experiments on day 21 post-seeding with TEER values >500 Ω·cm2. Bidirectional Transport Experiments. Before the transport experiments, the cell monolayer was washed three times with HBSS. Then, the plates were incubated in fresh permeability assay buffer (HBSS containing 10 mM glucose and 20 mM HEPES, pH 7.4) at 37° C. The experiments were conducted by spiking test compounds to either the apical (AP, 0.4 mL) or basolateral side (BL, 0.8 mL), while the receiving chamber contained the corresponding volume of pre-warmed permeability assay buffer. Every experiment was repeated in duplicate, and the plates were incubated in an orbital shaker at 37° C., 50 rpm/min. To assess the drug transport, at the incubation time of 20, 40, 60 and 80 min, aliquot was removed and was immediately replenished with an equal volume of permeability assay buffer. The samples were then subjected to LC/MS/MS analysis. The apparent permeability coefficient was indicated by the absorption rate constant Papp. It could be calculated as PBA (measured in BL to AP direction) or PAB (measured in AP to BL direction), using the equation of Papp=(dQ/dt)/(A×C0). dQ/dt is the rate at which the compound appears in the receiver chamber (nmol/s), A is the surface area of the filter membrane (0.7 cm2) and C0 is the initial concentration in the donor chamber (μM). Efflux ratio (ER) was calculated by the equation of ER=PBA/PAB, where PBA is the Papp value measured in BL to AP direction, and PAB is the Papp value measured in AP to BL direction.

[4] = Microsomal stability assay, human liver microsomes; format: in vitro ADME; details: pH 7.4; human liver microsomes 0.5 mg/mL, 1 mM NADPH, 1 μM compound; read-out: Microsomal Stability t1/2 Human
Description: as §1, §2

MIA PaCa-2 cells = test: Cell viability assay (MTT) in MIA PaCa-2 cells; format: cell-based; details: Homo sapiens, antiproliferative activity, 72 h
Outline: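 MIA PaCa-2 cells exposed 72 h at 37° C to 2-fold serial compound dilutions from 100 μM final, 0.5% DMSO, in triplicate. Viability by MTT (3 h), formazan read at 570 nm minus 650 nm; EC50 from curve fit.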

[5] = Plasma stability assay, mouse plasma; format: in vitro ADME; details: 37° C., 24 h
Description: as §3, §2

[6] = Thermodynamic solubility assay; format: physicochemical; details: aqueous buffer, thermodynamic from solid, DPBS pH=7.4, 48 h, ambient temperature
Description: Briefly, a saturated solution was made by adding DPBS to the solid compound. The mixture was shaken at 200 rpm for 48 h in a MaxQ 6000 orbital shaker at ambient temperature to allow equilibrium between the solid and dissolved compound. The suspension was then filtered through a 0.45 μm PVDF syringe filter and the filtrate was collected for analysis using UV spectrometry (SpectraMax M5e, Molecular Devices) at λ=240 nm.

[7] = tested on: MCF10A cells (normal human mammary cells); test: Cell viability assay (MTT) in MCF10A cells; format: cell-based; details: MCF-10A, 72 h
Description: MCF10A cells are maintained in minimum essential medium (MEM) (Invitrogen 11095) supplemented with 10% FBS (Invitrogen 16000), 1% 10× non-essential amino acids (NEAA) (Invitrogen 11140), 1% Penicillin/Streptomycin (Invitrogen 15140), 1% GlutaMAX (Invitrogen 35050-061), 20 ng/mL EGF, […] hydrocortisone, 100 ng/mL cholera toxin, 10 μg/mL insulin.
Cells were plated in 96-well plates at 25×10^4 cells/ml. After 24 hours, compounds were added at 9, 3× dilutions in triplicate from 100 uM final concentration in the appropriate growth media. Plates were incubated for 72 hours at 37° C. in a 5% CO2/95% air humidified atmosphere after which time the media was removed and MTT was added in RPMI phenol red free media. The MTT was removed after 3 hours and formazan crystals were solubilized with 200 μL of isopropanol. Plates were read on a Molecular Devices SpectraMax i3 spectrophotometer at 570 nm for formazan and 690 nm for background subtraction. EC50 values were calculated by fitting the data in GraphPad Prism software.

Structure (SMILES): CNC(=O)c1cc(Cn2nc(C)c(NC(=O)c3ccc(COc4ccc(C(F)(F)F)cc4C)cc3)c2C)ccn1 [Compound E2b, 4-((3,5-Dimethyl-4-(4-((2-methyl-4-(trifluoromethyl)phenoxy)methyl)benzamido)-1H-pyrazol-1-yl)methyl)-N-methylpicolinamide]
- half-life at 1 μM [1]: 1.48 h
- Plasma Stability (% remaining, 6 h/24 h) Human [2]: —/100%
- Papp A→B at 80 min ([3]; apical to basolateral): 8.34 ×10⁻⁶ cm/s
- Papp B→A at 80 min ([3]; basolateral to apical): 5.96 ×10⁻⁶ cm/s
- half-life at 1 μM [4]: 1.48 h
- EC50 (MIA PaCa-2 cells): 0.33 µM
- Plasma Stability (% remaining, 6 h/24 h) Mouse [5]: —/84%
- solubility at 48 h [6]: 211 ± 5 µM (≈ 116 µg/mL)
- EC50 [7]: 7.4 µM
